Experimental data from article PMC12152147, “DDB1 engagement defines the selectivity of S656 analogs for cyclin K degradation over CDK inhibition” (EMBO Reports, 2025).
Where two headings read alike, the source gives them in different places.

Columns and labels:
OCI-AML5 cells = assay: Dose-response proliferative assay in OCI-AML5 (4 days, CellTiterGlo); type: cell-based, H. sapiens; conditions: for IC50: Homo sapiens
Outline: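 OCI-AML5 cells in αMEM, 10% heat-inactivated FBS plus 10 ng/mL GM-CSF, 300 cells/well, exposed to 8-point 1:4 serial dilutions (10 μM down to 0.5 nM). Viability read after 4 days in culture at 37 °C, 5% CO2.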

cyclin KeGFP = assay: Cyclin KeGFP reporter system (eGFP/mCherry MFI by flow cytometry);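 also: 10 μM compound for 3 h relative to DMSO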; type: cell-based, H. sapiens; conditions: cyclin K-eGFP reporter
Outline: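 OCI-AML5 clone G7 carrying lentiviral cyclin KeGFP/mCherry reporter. eGFP and mCherry geometric MFI measured by flow cytometry; eGFP/mCherry ratio normalized to DMSO-treated cells.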

CDK1 = target: T1, CDK1 (Homo sapiens, UniProt P06493); assay: CDK1 in vitro kinase activity, single concentration 1 μM; type: biochemical; conditions: single concentration 1 μM
T1 construct: purchased BPS Bioscience 79597
T1 sequence (P06493 whole entry): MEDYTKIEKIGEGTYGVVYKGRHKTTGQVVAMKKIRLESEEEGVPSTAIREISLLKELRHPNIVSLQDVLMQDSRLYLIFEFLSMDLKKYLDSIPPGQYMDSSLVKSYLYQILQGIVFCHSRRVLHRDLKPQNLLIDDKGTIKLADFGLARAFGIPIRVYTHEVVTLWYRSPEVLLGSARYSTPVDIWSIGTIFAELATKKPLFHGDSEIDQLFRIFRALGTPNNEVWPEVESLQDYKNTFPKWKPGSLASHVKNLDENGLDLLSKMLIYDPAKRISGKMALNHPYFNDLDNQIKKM
T1 sequence (P14635 whole entry partner): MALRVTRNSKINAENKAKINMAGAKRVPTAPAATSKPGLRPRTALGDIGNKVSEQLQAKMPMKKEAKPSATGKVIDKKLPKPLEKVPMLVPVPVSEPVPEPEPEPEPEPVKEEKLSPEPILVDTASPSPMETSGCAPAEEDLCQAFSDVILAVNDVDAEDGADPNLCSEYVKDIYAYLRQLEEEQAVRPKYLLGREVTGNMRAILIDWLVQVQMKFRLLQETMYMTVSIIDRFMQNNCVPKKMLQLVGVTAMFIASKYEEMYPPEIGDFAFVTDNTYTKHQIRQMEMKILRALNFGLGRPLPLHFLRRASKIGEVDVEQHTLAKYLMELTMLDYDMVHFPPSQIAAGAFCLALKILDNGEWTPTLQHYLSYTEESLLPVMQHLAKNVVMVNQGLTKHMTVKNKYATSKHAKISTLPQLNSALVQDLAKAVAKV
Method: (§1) Kinase activity was assessed using the kinase assay kits from BPS Bioscience for CDK1, CDK9 and CDK12 with Kinase Glo MAX in duplicates. Compounds were tested at a single concentration of 1 μM for CDK1 and CDK9 activity, and in a dilution ranging from 0.64 nM to 50 μM for CDK12 activity. Chemiluminescence was read using the Neo Synergy BioTek plate reader.

CDK9/CyclinT = target: T2, CDK9/CyclinT (Homo sapiens, UniProt P50750); assay: CDK9/CyclinT in vitro kinase activity, single concentration 1 μM; type: biochemical; conditions: single concentration 1 μM
T2 construct: purchased BPS Bioscience 79628
T2 sequence (P50750 whole entry): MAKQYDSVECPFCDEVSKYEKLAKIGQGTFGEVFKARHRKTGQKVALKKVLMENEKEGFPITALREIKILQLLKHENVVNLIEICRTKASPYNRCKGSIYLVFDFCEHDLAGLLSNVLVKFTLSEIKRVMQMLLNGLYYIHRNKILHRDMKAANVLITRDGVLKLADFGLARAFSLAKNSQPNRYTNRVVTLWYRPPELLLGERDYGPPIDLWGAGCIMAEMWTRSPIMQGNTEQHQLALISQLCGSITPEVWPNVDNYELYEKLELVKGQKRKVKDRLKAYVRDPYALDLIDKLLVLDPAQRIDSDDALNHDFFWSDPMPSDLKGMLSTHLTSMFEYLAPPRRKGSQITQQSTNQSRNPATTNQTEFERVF
T2 sequence (O60563 whole entry partner): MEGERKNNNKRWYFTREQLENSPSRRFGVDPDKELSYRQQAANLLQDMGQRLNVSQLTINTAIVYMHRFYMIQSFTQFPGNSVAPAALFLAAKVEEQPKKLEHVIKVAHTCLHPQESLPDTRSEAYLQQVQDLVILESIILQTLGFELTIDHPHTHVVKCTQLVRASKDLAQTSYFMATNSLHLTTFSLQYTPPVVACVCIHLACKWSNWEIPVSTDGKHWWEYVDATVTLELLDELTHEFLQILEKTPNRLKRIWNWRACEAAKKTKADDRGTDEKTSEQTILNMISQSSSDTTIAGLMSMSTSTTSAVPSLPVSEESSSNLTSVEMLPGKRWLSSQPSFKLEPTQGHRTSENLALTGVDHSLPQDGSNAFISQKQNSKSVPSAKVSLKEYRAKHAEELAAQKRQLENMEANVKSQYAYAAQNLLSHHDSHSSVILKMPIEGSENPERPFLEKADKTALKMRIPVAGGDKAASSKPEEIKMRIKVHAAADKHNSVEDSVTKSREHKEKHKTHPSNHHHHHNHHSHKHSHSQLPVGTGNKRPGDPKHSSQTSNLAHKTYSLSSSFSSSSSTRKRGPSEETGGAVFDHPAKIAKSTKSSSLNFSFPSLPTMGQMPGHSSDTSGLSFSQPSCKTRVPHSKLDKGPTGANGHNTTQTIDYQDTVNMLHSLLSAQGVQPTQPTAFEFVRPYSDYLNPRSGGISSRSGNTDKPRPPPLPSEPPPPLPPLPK
Method: as §1

[1] = test system: OCI-AML5 cells expressing shRNAs targeting CDK1, 2, 4, 7, 9, cyclin K; assay: Dose response in OCI-AML5 expressing shRNAs targeting CDK1, 2, 4, 7, 9, cyclin K or control; type: cell-based, H. sapiens; conditions: for IC50: Homo sapiens; for class based on cellular selectivity: IC50 in shRNA OCI-AML5 cells and cyclin KeGFP degradation; for Class: class from shRNA IC50 profile and cyclin K-eGFP degradation
[2] = test system: OCI-AML5 cells expressing shRNA targeting CUL4A or CUL4B; assay: Dose response in OCI-AML5 expressing shRNAs targeting CUL4A, CUL4B or control; type: cell-based, H. sapiens; conditions: ratio of IC50 in shCUL4A vs shCTRL OCI-AML5 cells
primary AML specimens = assay: Dose-response assays in primary AML specimens (6 days, CellTiterGlo); type: cell-based, human; conditions: Homo sapiens, 144 h, read-out: median IC50 in a panel of 40 primary AMLs, 6 days
Method: Freshly thawed primary AML specimens were used for chemical screens. Cryopreserved cells were thawed at 37 °C in IMDM containing 20% FBS and DNase I (100 μg/mL). Cells were resuspended in IMDM supplemented with 15% BIT (BSA, insulin, transferrin; StemCell Technologies), 100 ng/mL SCF, 50 ng/mL FLT3L, 20 ng/mL IL3, 20 ng/mL G-CSF, 10^−4 mol/L b-mercaptoethanol, gentamicin (50 μg/mL), ciprofloxacin (10 μg/mL), SR1 (500 nmol/L) and UM729 (500 nmol/L). Cells were plated in 384-well white plates, 5000 cells per well in 50 μL. Compounds were dissolved in DMSO, diluted in media immediately before use and added to seeded cells at the unique concentration of 1 μM. Control wells received DMSO (0.1%) only. Cell viability was evaluated after 6 days in culture using the CellTiterGlo assay according to the manufacturer’s instruction. Percentage of inhibition for dose response curves was calculated as 100 – (100 × (mean luminescence [compound]/mean luminescence [DMSO])). Dose response curves were generated using nonlinear regression in GraphPad Prism version.
Dose-response assays in primary AML specimens were performed as in chemical screen (see above) with the exception that compounds were tested in serial dilution (8 dilutions, 1:4, 10 μM down to 0.5 nM). Dose-response assays in OCI-AML5 cell line were conducted similarly with the following modifications: 300 cells per well were seeded in 50 μL of cell line media and cell viability was evaluated after 4 days in culture.

[3] = test system: OCI-AML5 and U937 cell lines; assay: Synergistic interaction assay with THZ531 (Bliss score); type: cell-based
From the text: 3. It may be worthwhile to investigate whether the CDK12/13 inhibitor THZ531 could synergize with S656 or analogues like UOM-005636 that specifically degrade Cyclin K, in combination cytotoxicity assays, assessing selective suppression of AML viability over normal cells. Both […]
inhibiting CDK12, and S656 / UOM-005636 by degrading Cyclin K. Similar synergistic effects were observed by Katharina et al., where THZ531 promoted prostate ca ncer cell sensitivity to androgen deprivation therapy [Frei, K et. al. Inhibition of the Cyclin K-CDK12 complex induces DNA damage and increases the effect of androgen deprivation therapy in prostate cancer. Int J […]
Indeed, THZ531 is a covalent CDK12/13 inhibitor that specifically binds to the kinase pocket of […]
pocket of CDK12, and that pre-incubation with THZ531 competes with S656-mediated Cyclin K degradation (see Figure 5E).
We performed a synergistic interaction assay between THZ531 and S656 or UOM-005636 in OCI-AML5 and U937 cell lines (see below). […]
interactions between THZ531 and our cyclin K degrader molecules. This is likely due to both drugs competing for the same binding site, rather than acting through complementary pathways. […]

[4] = target: T3, OCI-AML5 total protein extracts (cyclin K, CDKs, DDB1) (Homo sapiens, UniProt P21439); assay: Pull-down with immobilized probes and quantitative mass spectrometry; type: binding, H. sapiens; conditions: protein ABCB4 (P21439)
T3 construct: endogenous in cells; host or cells: OCI-AML5 total protein extract
T3 sequence (P21439 whole entry): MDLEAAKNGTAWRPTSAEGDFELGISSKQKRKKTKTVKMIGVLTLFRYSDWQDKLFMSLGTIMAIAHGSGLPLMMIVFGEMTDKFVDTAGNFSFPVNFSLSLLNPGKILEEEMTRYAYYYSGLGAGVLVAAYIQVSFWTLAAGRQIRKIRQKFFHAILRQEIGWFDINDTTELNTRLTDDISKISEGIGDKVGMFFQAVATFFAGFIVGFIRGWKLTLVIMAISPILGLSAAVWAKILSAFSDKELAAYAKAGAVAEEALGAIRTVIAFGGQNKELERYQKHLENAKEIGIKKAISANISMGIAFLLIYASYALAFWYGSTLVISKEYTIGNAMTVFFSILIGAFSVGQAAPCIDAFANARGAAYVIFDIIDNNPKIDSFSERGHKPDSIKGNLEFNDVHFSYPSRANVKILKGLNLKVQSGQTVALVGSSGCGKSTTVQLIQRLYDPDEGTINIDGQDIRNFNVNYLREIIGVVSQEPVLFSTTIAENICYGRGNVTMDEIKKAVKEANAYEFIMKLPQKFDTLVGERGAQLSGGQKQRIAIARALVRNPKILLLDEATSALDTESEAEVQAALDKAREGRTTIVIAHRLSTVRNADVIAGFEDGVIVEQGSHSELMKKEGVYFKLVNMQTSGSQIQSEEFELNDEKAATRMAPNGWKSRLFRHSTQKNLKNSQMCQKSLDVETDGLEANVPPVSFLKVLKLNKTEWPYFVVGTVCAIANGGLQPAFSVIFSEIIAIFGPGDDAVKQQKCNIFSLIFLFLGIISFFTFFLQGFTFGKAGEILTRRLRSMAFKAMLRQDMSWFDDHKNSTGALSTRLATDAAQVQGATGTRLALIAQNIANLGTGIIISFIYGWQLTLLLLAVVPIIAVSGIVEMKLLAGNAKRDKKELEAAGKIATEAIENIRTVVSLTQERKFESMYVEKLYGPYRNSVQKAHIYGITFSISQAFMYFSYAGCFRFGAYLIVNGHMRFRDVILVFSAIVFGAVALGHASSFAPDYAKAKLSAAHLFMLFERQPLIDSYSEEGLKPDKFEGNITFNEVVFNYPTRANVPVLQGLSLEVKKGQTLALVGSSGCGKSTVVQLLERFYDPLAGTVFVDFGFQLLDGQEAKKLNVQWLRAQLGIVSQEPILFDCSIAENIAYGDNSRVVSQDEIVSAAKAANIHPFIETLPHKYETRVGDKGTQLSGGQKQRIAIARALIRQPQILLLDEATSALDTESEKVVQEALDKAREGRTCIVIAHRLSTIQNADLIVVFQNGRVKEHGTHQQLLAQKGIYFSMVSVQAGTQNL
Method: (§2) Probe compounds were immobilized through their terminal amine on NHS-sepharose beads as previously described (Médard et al, [2015]). The prepared beads were then washed in PBS and equilibrated in Triton X-100 buffer. For each replicate, 1–2 mg of total proteins (2 mg/ml) were incubated end-over-end with 25 μl of beads overnight at 4 °C in low protein binding microtubes (Sarstedt). The samples were then washed twice in Triton X-100 buffer, transferred to new microtubes and further washed six times in PBS including another microtube transfer at the last wash. Beads pellets were resuspended in 50 mM ammonium bicarbonate and subjected to reduction, alkylation and tryptic digest as described above. Peptides were separated on an home-made reversed-phase column (150-μm i.d. by 200 mm) with a 56-min gradient from 10 to 30% ACN-0.2% FA and a 600-nl/min flow rate on a Easy nLC-1200 connected to a Exploris 480 (ThermoFisher Scientific, San Jose, CA). Each full MS spectrum acquired at a resolution of 120,000 was followed by tandem-MS (MS-MS) spectra acquisition on the most abundant multiply charged precursor ions for 3 s. Tandem-MS experiments were performed using higher energy collision dissociation (HCD) at a collision energy of 34%. The data were processed using PEAKS X Pro (Bioinformatics Solutions, Waterloo, ON) and a Uniprot human database (20366 entries). Mass tolerances on precursor and fragment ions were 10 ppm and 0.01 Da, respectively. Fixed modification was carbamidomethyl (C). Variable selected posttranslational modifications were acetylation (N-ter), oxidation (M), deamidation (NQ), phosphorylation (STY). The data were visualized with Scaffold 5.0 (protein threshold, 99%, with at least 2 peptides identified and a false-discovery rate [FDR] of 1% for peptides).
(§3) Differential Enrichment analysis of Proteomics data (DEP) package (Zhang et al, [2018]) in R was used to analyze the data (excluding proteins identified based on a single peptide), including data filtering, normalization, imputation of missing values and statistical testing of differentially expressed proteins.

[5] = target: T4, OCI-AML5 total protein extracts (cyclin K, CDKs, DDB1) (Homo sapiens, UniProt P45844); assay: as above; type: binding, H. sapiens; conditions: protein ABCG1 (P45844)
T4 construct: endogenous in cells; host or cells: OCI-AML5 total protein extract
Method: as §2, §3

[6] = target: T5, OCI-AML5 total protein extracts (cyclin K, CDKs, DDB1) (Homo sapiens, UniProt Q6UXT9); assay: as above; type: binding, H. sapiens; conditions: protein ABHD15 (Q6UXT9)
T5 construct: endogenous in cells; host or cells: OCI-AML5 total protein extract
T5 sequence (Q6UXT9 24-468): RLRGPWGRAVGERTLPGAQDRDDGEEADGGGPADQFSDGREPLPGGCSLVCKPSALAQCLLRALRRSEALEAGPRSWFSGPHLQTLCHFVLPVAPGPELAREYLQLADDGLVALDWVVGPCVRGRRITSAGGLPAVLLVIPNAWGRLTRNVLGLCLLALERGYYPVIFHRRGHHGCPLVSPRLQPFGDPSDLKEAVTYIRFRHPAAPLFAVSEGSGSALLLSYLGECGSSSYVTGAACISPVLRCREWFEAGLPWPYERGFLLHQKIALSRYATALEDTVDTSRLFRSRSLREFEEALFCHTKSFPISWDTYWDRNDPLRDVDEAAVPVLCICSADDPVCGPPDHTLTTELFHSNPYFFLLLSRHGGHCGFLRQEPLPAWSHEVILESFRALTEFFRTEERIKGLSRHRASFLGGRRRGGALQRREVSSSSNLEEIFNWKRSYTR
Method: as §2, §3

[7] = target: T6, OCI-AML5 total protein extracts (cyclin K, CDKs, DDB1) (Homo sapiens, UniProt Q86UQ4); assay: as above; type: binding, H. sapiens; conditions: protein ABCA13 (Q86UQ4)
T6 construct: endogenous in cells; host or cells: OCI-AML5 total protein extract
Method: as §2, §3

[8] = target: T7, OCI-AML5 total protein extracts (cyclin K, CDKs, DDB1) (Homo sapiens, UniProt Q96IU4); assay: as above; type: binding, H. sapiens; conditions: protein ABHD14B (Q96IU4)
T7 construct: endogenous in cells; host or cells: OCI-AML5 total protein extract
T7 sequence (Q96IU4 1-210): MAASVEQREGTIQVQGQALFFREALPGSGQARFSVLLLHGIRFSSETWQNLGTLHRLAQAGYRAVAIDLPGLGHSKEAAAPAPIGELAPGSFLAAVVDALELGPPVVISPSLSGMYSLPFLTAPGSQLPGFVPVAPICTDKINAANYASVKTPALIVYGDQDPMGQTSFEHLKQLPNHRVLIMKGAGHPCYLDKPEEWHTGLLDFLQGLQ
Method: as §2, §3

[9] = OCI-AML-5, OCI-AML5 cells, read-out: IC50 in AML5
[10] = OCI-AML-5, OCI-AML5 expressing shRNA CCNK (cyclin K), read-out: IC50 shRNA CCNK
[11] = OCI-AML-5, OCI-AML5 expressing shRNA CDK1, read-out: IC50 shRNA CDK1
[12] = OCI-AML-5, OCI-AML5 expressing shRNA CDK2, read-out: IC50 shRNA CDK2
[13] = OCI-AML-5, OCI-AML5 expressing shRNA CDK4, read-out: IC50 shRNA CDK4
[14] = OCI-AML-5, OCI-AML5 expressing shRNA CDK7, read-out: IC50 shRNA CDK7
[15] = OCI-AML-5, OCI-AML5 expressing shRNA CDK9, read-out: IC50 shRNA CDK9
[16] = OCI-AML-5, 96 h, 4 days incubation, read-out: IC50 OCI-AML5

IC50 (OCI-AML5 cells; [9]) [nM]	inhibition at 1 µM (CDK1) [%]	inhibition at 1 µM (CDK9/CyclinT) [%]	IC50 [1, 10] [nM]	IC50 [1, 11] [nM]	IC50 [1, 12] [nM]	IC50 [1, 13] [nM]	IC50 [1, 14] [nM]	IC50 [1, 15] [nM]	Compound	% degradation cyclin K-eGFP (cyclin KeGFP) [%]	class based on cellular selectivity [1]	Class [1]	Ratio shCUL4A/shCTRL [2]	IC50 (OCI-AML5 cells; [16]) [nM]	further results
152	63	54	45.2	160	180	160	170	125	O=C(Cc1ccc(N2CCCC2)cc1)Nc1ncc(SCc2cccnc2)s1 [UOM-005608]	77	Class I (effective cyclin K MGDs (decreased IC50 in cyclin K depleted cells only, and >65% degradation of cyclin KeGFP))	1	2.84		
1730	43	84	1370	648	1720	2150	1400	743	CC(=O)N1CCN(c2ccc(CC(=O)Nc3ncc(SCc4cccnc4)s3)cc2)CC1 [UOM-005614]	0	Class II	2	0.67		
	69	57	21.7	112	142	140	140	101	O=C(Cc1ccc(-c2ccccn2)cc1)Nc1ncc(SCc2cccnc2)s1 [UOM-005636]	80	Class I (effective cyclin K MGDs (decreased IC50 in cyclin K depleted cells only, and >65% degradation of cyclin KeGFP))	1	2.3	85	IC50 (primary AML specimens): 154 nM; times more potent than S656 (OCI-AML5 cells; OCI-AML5 cell line and panel of 40 primary AMLs): 8; synergistic interaction with THZ531 (Bliss score) [3]: moderate to very low synergistic
									CN(CCOCCOCCN)c1ccc(CC(=O)Nc2nnc(SCc3cccnc3)s2)cc1 [UOM-005839]					> 10000	UOM-005839_centered ([4]; centered abundance): 0.902; UOM-005839_vs_Beads_ratio ([4]; immobilized probe vs beads): -2; UOM-005839_centered ([5]; centered abundance): -1.3; UOM-005839_vs_Beads_ratio ([5]; immobilized probe vs beads): 1.31; UOM-005839_centered ([6]; centered abundance): 0.886; UOM-005839_vs_Beads_ratio ([6]; immobilized probe vs beads): 4.56; UOM-005839_centered ([7]; centered abundance): 0.126; UOM-005839_vs_Beads_ratio ([7]; immobilized probe vs beads): -0.0556; UOM-005839_centered ([8]; centered abundance): 0.505; UOM-005839_vs_Beads_ratio ([8]; immobilized probe vs beads): 3.62
